Measured values taken from the supplement of paper PMC10307832.

Legend:
Experiment in all cases: relative viability (nuclei count vs DMSO), 5 days (fraction); higher = more cells survive
Alpelisib + Tozasertib = compound: Cc1nc(NC(=O)N2CCC[C@H]2C(N)=O)sc1-c1ccnc(C(C)(C)C(F)(F)F)c1 [Alpelisib] + Cc1cc(Nc2cc(N3CCN(C)CC3)nc(Sc3ccc(NC(=O)C4CC4)cc3)n2)n[nH]1 [Tozasertib] (partner 0.1 µM)
Method in brief: (§1)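 Medians of duplicate plates are given as relative viability. That measure is the nuclei count in treated wells divided by the count in vehicle wells. Counts were taken on 4× images of lung cancer cell lines in 1536-well plates, 5 days after pin-tool dosing the day after seeding with one drug alone or a fixed anchor-drug dose plus five library-drug doses (not always all listed) in √10 steps.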

Vemurafenib + Linsitinib = compound: CCCS(=O)(=O)Nc1ccc(F)c(C(=O)c2c[nH]c3ncc(-c4ccc(Cl)cc4)cc23)c1F [Vemurafenib] + C[C@]1(O)C[C@@H](c2nc(-c3ccc4ccc(-c5ccccc5)nc4c3)c3c(N)nccn32)C1 [Linsitinib] (partner 1 µM)
Method in brief: as §1

Vemurafenib + OSI-027 = compound: CCCS(=O)(=O)Nc1ccc(F)c(C(=O)c2c[nH]c3ncc(-c4ccc(Cl)cc4)cc23)c1F [Vemurafenib] + COc1cccc2cc(-c3nc([C@H]4CC[C@H](C(=O)O)CC4)n4ncnc(N)c34)[nH]c12 [OSI-027] (partner 0.5 µM)
Method in brief: as §1

OSI-027 + Pictilisib = compound: COc1cccc2cc(-c3nc([C@H]4CC[C@H](C(=O)O)CC4)n4ncnc(N)c34)[nH]c12 [OSI-027] + CS(=O)(=O)N1CCN(Cc2cc3nc(-c4cccc5[nH]ncc45)nc(N4CCOCC4)c3s2)CC1 [Pictilisib] (partner 1 µM)
Method in brief: as §1

Cell Line | relative viability (Alpelisib + Tozasertib; first compound 0.04 µM) | relative viability (Alpelisib + Tozasertib; first compound 0.1265 µM) | relative viability (Alpelisib + Tozasertib; first compound 0.4 µM) | relative viability (Alpelisib + Tozasertib; first compound 1.265 µM) | relative viability (Alpelisib + Tozasertib; first compound 4 µM) | relative viability (Vemurafenib + Linsitinib; first compound 0.03162 µM) | relative viability (Vemurafenib + Linsitinib; first compound 0.1 µM) | relative viability (Vemurafenib + Linsitinib; first compound 0.3162 µM) | relative viability (Vemurafenib + Linsitinib; first compound 1 µM) | relative viability (Vemurafenib + OSI-027; first compound 0.03162 µM) | relative viability (Vemurafenib + OSI-027; first compound 0.1 µM) | relative viability (Vemurafenib + OSI-027; first compound 0.3162 µM) | relative viability (Vemurafenib + OSI-027; first compound 1 µM) | relative viability (OSI-027 + Pictilisib; first compound 0.01 µM) | relative viability (OSI-027 + Pictilisib; first compound 0.03162 µM) | relative viability (OSI-027 + Pictilisib; first compound 0.1 µM) | relative viability (OSI-027 + Pictilisib; first compound 0.3162 µM) | relative viability (OSI-027 + Pictilisib; first compound 1 µM)
LK-2 | 0.158 | 0.164 | 0.179 | 0.167 | 0.154 | 0.409 | 0.525 | 0.811 | 0.417 | 0.194 | 0.21 | 0.228 | 0.158 | 0.627 | 0.474 | 0.305 | 0.251 | 0.23
LOU-NH91 | 0.689 | 0.643 | 0.656 | 0.563 | 0.443 | 0.864 | 0.535 | – | 1.01 | 0.72 | – | – | 0.726 | 0.544 | 0.555 | 0.489 | 0.472 | 0.447
LU99A | 0.283 | 0.26 | 0.308 | 0.259 | 0.23 | 0.484 | 0.445 | 0.586 | 0.479 | 0.325 | 0.28 | 0.244 | 0.287 | 0.315 | 0.294 | 0.259 | 0.18 | 0.189
LXF-289 | 0.21 | 0.182 | 0.249 | 0.134 | 0.128 | 0.877 | 0.919 | 0.992 | 1.04 | 0.758 | 0.668 | 0.622 | 0.772 | 0.778 | 0.714 | 0.752 | 0.511 | 0.46
NCI-H23 | 0.39 | 0.428 | 0.459 | 0.302 | 0.255 | 0.621 | 0.605 | 0.715 | 0.59 | 0.566 | 0.543 | 0.547 | 0.349 | 0.491 | 0.403 | 0.407 | 0.312 | 0.245
NCI-H322M | 0.496 | 0.435 | 0.515 | 0.383 | 0.284 | 0.851 | – | 0.964 | 0.885 | 0.461 | – | – | 0.475 | 0.574 | 0.443 | 0.485 | 0.416 | 0.405
NCI-H358 | 0.111 | 0.114 | 0.116 | 0.0852 | 0.0831 | 0.686 | – | 1 | 0.79 | 0.7 | 0.47 | 0.928 | 0.882 | 0.334 | 0.333 | 0.273 | 0.267 | 0.284
NCI-H441 | 0.629 | 0.537 | 0.693 | 0.418 | 0.366 | 0.555 | 0.527 | 0.491 | 0.345 | 0.57 | 0.476 | 0.584 | 0.418 | 0.459 | 0.312 | 0.491 | 0.312 | 0.257
NCI-H460 | 0.153 | 0.44 | 0.563 | 0.181 | 0.241 | 0.677 | 0.839 | 0.879 | 0.777 | 0.549 | 0.623 | 0.456 | 0.473 | 0.274 | 0.416 | 0.295 | 0.314 | 0.211
NCI-H520 | 0.449 | 0.461 | 0.462 | 0.351 | 0.309 | 1.06 | 1.13 | 1.02 | 0.956 | 0.236 | 0.282 | 0.327 | 0.214 | 0.31 | 0.268 | 0.219 | 0.17 | 0.145
NCI-H596 | 0.859 | 0.893 | 0.86 | 0.56 | 0.374 | 1.07 | 0.918 | 1.12 | 1.06 | 0.686 | 0.723 | 0.577 | 0.492 | 0.41 | 0.435 | 0.361 | 0.317 | 0.311
NCI-H647 | 0.416 | 0.322 | 0.419 | 0.102 | 0.26 | 1.08 | 0.971 | 1.03 | 1.14 | 0.636 | 0.629 | 0.477 | 0.564 | 0.395 | 0.398 | 0.234 | 0.276 | 0.15
NCI-H650 | 0.705 | 0.758 | 0.798 | 0.54 | 0.573 | 0.709 | 0.83 | 0.297 | 0.595 | 0.459 | 0.473 | – | 0.421 | 0.882 | 0.745 | 0.702 | 0.452 | 0.345
NCI-H661 | 0.369 | 0.362 | 0.348 | 0.337 | 0.323 | 0.573 | 0.516 | 0.663 | 0.637 | 0.673 | 0.559 | 0.658 | 0.688 | 0.42 | 0.392 | 0.344 | 0.254 | 0.268
NCI-H727 | 0.749 | 0.584 | 0.641 | 0.575 | 0.459 | 0.265 | 0.281 | 0.415 | 0.394 | 0.571 | 0.561 | 1.08 | 0.526 | 0.3 | 0.247 | 0.351 | 0.246 | 0.319
NCI-H838 | 0.279 | 0.25 | 0.277 | 0.215 | 0.247 | 0.979 | 1.01 | – | 1.14 | 0.367 | 0.404 | – | 0.436 | 0.409 | 0.434 | 0.294 | 0.241 | 0.297
NCI-H1355 | 0.539 | 0.489 | 0.528 | 0.441 | 0.373 | 0.713 | 0.709 | 0.801 | 0.758 | 0.41 | 0.341 | 0.386 | 0.351 | 0.436 | 0.399 | 0.326 | 0.271 | 0.208
